The NIST ThermoML archive (doi:10.1016/j.jct.2005.09.005)
± gives the expanded uncertainty stated by the source.

Assay: molar heat capacity at constant pressure
Settings: 101.33 kPa, Crystal, Vacuum adiabatic calorimetry

With [2H]O[2H] [water-d2] the “molar heat capacity at constant pressure” value (5 K) was 0.0363 ± 0.01 J/K/mol, the “molar heat capacity at constant pressure” value (6.58 K) was 0.0659 ± 0.011 J/K/mol and the “molar heat capacity at constant pressure” value (7.08 K) was 0.141 ± 0.012 J/K/mol. For the same molecule, the “molar heat capacity at constant pressure” value (7.56 K) was 0.12 ± 0.011 J/K/mol, the “molar heat capacity at constant pressure” value (8.12 K) was 0.158 ± 0.012 J/K/mol and the “molar heat capacity at constant pressure” value (8.61 K) was 0.19 ± 0.012 J/K/mol. The “molar heat capacity at constant pressure” value (9.07 K) was 0.222 ± 0.012 J/K/mol, the “molar heat capacity at constant pressure” value (9.51 K) was 0.261 ± 0.012 J/K/mol and the “molar heat capacity at constant pressure” value (9.94 K) was 0.305 ± 0.012 J/K/mol. The “molar heat capacity at constant pressure” value (10 K) was 0.315 ± 0.012 J/K/mol, the “molar heat capacity at constant pressure” value (10.37 K) was 0.358 ± 0.013 J/K/mol and the “molar heat capacity at constant pressure” value (10.8 K) was 0.407 ± 0.013 J/K/mol. The “molar heat capacity at constant pressure” value (11.22 K) was 0.462 ± 0.014 J/K/mol, the “molar heat capacity at constant pressure” value (11.65 K) was 0.523 ± 0.014 J/K/mol and the “molar heat capacity at constant pressure” value (12.68 K) was 0.659 ± 0.015 J/K/mol. The “molar heat capacity at constant pressure” value (13.4 K) was 0.774 ± 0.016 J/K/mol, the “molar heat capacity at constant pressure” value (14.11 K) was 0.8996 ± 0.017 J/K/mol and the “molar heat capacity at constant pressure” value (14.93 K) was 1.051 ± 0.017 J/K/mol. For the same molecule, the “molar heat capacity at constant pressure” value (15 K) was 1.07 ± 0.02 J/K/mol, the “molar heat capacity at constant pressure” value (15.65 K) was 1.193 ± 0.018 J/K/mol and the “molar heat capacity at constant pressure” value (16.38 K) was 1.337 ± 0.019 J/K/mol. The “molar heat capacity at constant pressure” value (17.11 K) was 1.492 ± 0.02 J/K/mol, the “molar heat capacity at constant pressure” value (17.84 K) was 1.652 ± 0.021 J/K/mol and the “molar heat capacity at constant pressure” value (18.58 K) was 1.814 ± 0.021 J/K/mol. For the same molecule, the “molar heat capacity at constant pressure” value (19.33 K) was 1.982 ± 0.022 J/K/mol, the “molar heat capacity at constant pressure” value (20 K) was 2.125 ± 0.022 J/K/mol and the “molar heat capacity at constant pressure” value (20.08 K) was 2.152 ± 0.022 J/K/mol. The “molar heat capacity at constant pressure” value (21.87 K) was 2.524 ± 0.023 J/K/mol, the “molar heat capacity at constant pressure” value (24.35 K) was 3.102 ± 0.025 J/K/mol and the “molar heat capacity at constant pressure” value (25 K) was 3.246 ± 0.025 J/K/mol. For the same molecule, the “molar heat capacity at constant pressure” value (26.84 K) was 3.651 ± 0.025 J/K/mol, the “molar heat capacity at constant pressure” value (29.35 K) was 4.206 ± 0.025 J/K/mol and the “molar heat capacity at constant pressure” value (30 K) was 4.322 ± 0.049 J/K/mol. The “molar heat capacity at constant pressure” value (31.87 K) was 4.729 ± 0.05 J/K/mol, the “molar heat capacity at constant pressure” value (34.41 K) was 5.231 ± 0.051 J/K/mol and the “molar heat capacity at constant pressure” value (36.93 K) was 5.723 ± 0.052 J/K/mol. For the same molecule, the “molar heat capacity at constant pressure” value (39.46 K) was 6.213 ± 0.052 J/K/mol, the “molar heat capacity at constant pressure” value (40 K) was 6.304 ± 0.052 J/K/mol and the “molar heat capacity at constant pressure” value (41.98 K) was 6.674 ± 0.053 J/K/mol. The “molar heat capacity at constant pressure” value (44.5 K) was 7.12 ± 0.054 J/K/mol, the “molar heat capacity at constant pressure” value (47.01 K) was 7.558 ± 0.055 J/K/mol and the “molar heat capacity at constant pressure” value (49.52 K) was 8.018 ± 0.057 J/K/mol. For the same molecule, the “molar heat capacity at constant pressure” value (50 K) was 8.154 ± 0.057 J/K/mol, the “molar heat capacity at constant pressure” value (52.01 K) was 8.514 ± 0.06 J/K/mol and the “molar heat capacity at constant pressure” value (54.5 K) was 9.012 ± 0.06 J/K/mol. For the same molecule, the “molar heat capacity at constant pressure” value (56.99 K) was 9.486 ± 0.06 J/K/mol, the “molar heat capacity at constant pressure” value (59.48 K) was 9.885 ± 0.06 J/K/mol and the “molar heat capacity at constant pressure” value (60 K) was 9.968 ± 0.06 J/K/mol. The “molar heat capacity at constant pressure” value (62.01 K) was 10.32 ± 0.06 J/K/mol, the “molar heat capacity at constant pressure” value (64.5 K) was 10.83 ± 0.06 J/K/mol and the “molar heat capacity at constant pressure” value (66.98 K) was 11.22 ± 0.07 J/K/mol. The “molar heat capacity at constant pressure” value (69.45 K) was 11.66 ± 0.07 J/K/mol, the “molar heat capacity at constant pressure” value (70 K) was 11.72 ± 0.07 J/K/mol and the “molar heat capacity at constant pressure” value (71.93 K) was 12.02 ± 0.07 J/K/mol. For the same molecule, the “molar heat capacity at constant pressure” value (74.43 K) was 12.44 ± 0.07 J/K/mol, the “molar heat capacity at constant pressure” value (76.9 K) was 12.74 ± 0.07 J/K/mol and the “molar heat capacity at constant pressure” value (79.38 K) was 13.19 ± 0.07 J/K/mol. For the same molecule, the “molar heat capacity at constant pressure” value (80 K) was 13.39 ± 0.07 J/K/mol, the “molar heat capacity at constant pressure” value (81.85 K) was 13.77 ± 0.07 J/K/mol and the “molar heat capacity at constant pressure” value (82.58 K) was 13.86 ± 0.07 J/K/mol. For the same molecule, the “molar heat capacity at constant pressure” value (84.31 K) was 14.14 ± 0.07 J/K/mol, the “molar heat capacity at constant pressure” value (84.89 K) was 14.3 ± 0.07 J/K/mol and the “molar heat capacity at constant pressure” value (87.37 K) was 14.74 ± 0.07 J/K/mol. The “molar heat capacity at constant pressure” value (89.84 K) was 15.12 ± 0.07 J/K/mol, the “molar heat capacity at constant pressure” value (90 K) was 15.16 ± 0.22 J/K/mol and the “molar heat capacity at constant pressure” value (92.31 K) was 15.57 ± 0.22 J/K/mol. For the same molecule, the “molar heat capacity at constant pressure” value (94.78 K) was 15.98 ± 0.22 J/K/mol, the “molar heat capacity at constant pressure” value (97.24 K) was 16.41 ± 0.22 J/K/mol and the “molar heat capacity at constant pressure” value (99.71 K) was 16.82 ± 0.22 J/K/mol. For the same molecule, the “molar heat capacity at constant pressure” value (100 K) was 16.89 ± 0.22 J/K/mol, the “molar heat capacity at constant pressure” value (102.17 K) was 17.25 ± 0.22 J/K/mol and the “molar heat capacity at constant pressure” value (104.63 K) was 17.71 ± 0.22 J/K/mol. The “molar heat capacity at constant pressure” value (107.09 K) was 18.15 ± 0.22 J/K/mol, the “molar heat capacity at constant pressure” value (109.53 K) was 18.67 ± 0.22 J/K/mol and the “molar heat capacity at constant pressure” value (110 K) was 18.7 ± 0.22 J/K/mol. For the same molecule, the “molar heat capacity at constant pressure” value (111.98 K) was 19.03 ± 0.22 J/K/mol, the “molar heat capacity at constant pressure” value (114.42 K) was 19.58 ± 0.22 J/K/mol and the “molar heat capacity at constant pressure” value (116.87 K) was 19.92 ± 0.22 J/K/mol. For the same molecule, the “molar heat capacity at constant pressure” value (119.31 K) was 20.41 ± 0.22 J/K/mol, the “molar heat capacity at constant pressure” value (120 K) was 20.48 ± 0.22 J/K/mol and the “molar heat capacity at constant pressure” value (121.79 K) was 20.81 ± 0.22 J/K/mol. The “molar heat capacity at constant pressure” value (124.23 K) was 21.21 ± 0.22 J/K/mol, the “molar heat capacity at constant pressure” value (126.67 K) was 21.62 ± 0.22 J/K/mol and the “molar heat capacity at constant pressure” value (129.11 K) was 22.03 ± 0.22 J/K/mol. For the same molecule, the “molar heat capacity at constant pressure” value (130 K) was 22.2 ± 0.22 J/K/mol, the “molar heat capacity at constant pressure” value (131.54 K) was 22.45 ± 0.22 J/K/mol and the “molar heat capacity at constant pressure” value (133.98 K) was 22.91 ± 0.22 J/K/mol. The “molar heat capacity at constant pressure” value (136.41 K) was 23.27 ± 0.22 J/K/mol, the “molar heat capacity at constant pressure” value (138.85 K) was 23.7 ± 0.22 J/K/mol and the “molar heat capacity at constant pressure” value (140 K) was 23.89 ± 0.22 J/K/mol. For the same molecule, the “molar heat capacity at constant pressure” value (141.28 K) was 24.08 ± 0.22 J/K/mol, the “molar heat capacity at constant pressure” value (143.71 K) was 24.5 ± 0.22 J/K/mol and the “molar heat capacity at constant pressure” value (146.14 K) was 24.9 ± 0.22 J/K/mol. For the same molecule, the “molar heat capacity at constant pressure” value (148.57 K) was 25.31 ± 0.22 J/K/mol, the “molar heat capacity at constant pressure” value (150 K) was 25.54 ± 0.22 J/K/mol and the “molar heat capacity at constant pressure” value (151 K) was 25.71 ± 0.22 J/K/mol. The “molar heat capacity at constant pressure” value (153.43 K) was 26.1 ± 0.22 J/K/mol.
